How the values were obtained:
GP2D (KRAS G12D) = test: Cell Proliferation Assay (CellTiter-Glo 2.0), GP2D; type: cell-based; settings: GP2D (KRAS G12D) cells; 72 hours at 37° C., 5% CO2; read-out: Anti-proliferation IC50, GP2D (KRAS G12D)
Method: (§1) Two thousand KRAS mutant cells per well are seeded in 384-well white plate and then treated with indicated compounds for 72 hours at 37° C. and 5% CO2. Cell proliferation is measured using CellTiter-Glo 2.0 luciferase-based ATP detection assay (Promega, Madison, WI) following the manufacturer's protocol. IC50 values are determined using Prism software (GraphPad Software, San Diego, CA).

SW620 (KRAS G12V) = test: Cell Proliferation Assay (CellTiter-Glo 2.0), SW620; type: cell-based; settings: Homo sapiens, SW-620; SW620 (KRAS G12V) cells; 72 hours at 37° C., 5% CO2; read-out: Anti-proliferation IC50, SW620 (KRAS G12V)
Method: as §1

| Structure (SMILES) | IC50 (GP2D (KRAS G12D)) | IC50 (SW620 (KRAS G12V)) |
| --- | --- | --- |
| C#Cc1c(F)ccc2cc(O)cc(-c3nc4c5c(nc(OC[C@@]67CCCN6C[C@H](F)C7)nc5c3F)N3CCCOC[C@H]3CC4)c12 [compound 1, 5-ethynyl-6-fluoro-4-[(8aR)-4-fluoro-2-{[(2R,7aS)-2-fluorotetrahydro-1H-pyrrolizin-7a(5H)-yl]methoxy}-7,8,8a,9,12,13-hexahydro-11H-10-oxa-1,3,6,13a-tetraazanaphtho[1,8-ab]heptalen-5-yl]naphthalen-2-ol] | 0.0011 µM | 0.0036 µM |
| C#Cc1c(F)ccc2cc(O)cc(-c3nc4c5c(nc(OC[C@@]67CCCN6C[C@H](F)C7)nc5c3F)N3CCCOC[C@@H]3CC4)c12 [compound 2, 5-ethynyl-6-fluoro-4-[(8aS)-4-fluoro-2-{[(2R,7aS)-2-fluorotetrahydro-1H-pyrrolizin-7a(5H)-yl]methoxy}-7,8,8a,9,12,13-hexahydro-11H-10-oxa-1,3,6,13a-tetraazanaphtho[1,8-ab]heptalen-5-yl]naphthalen-2-ol] | 0.085 µM | 0.592 µM |
| CCc1c(F)ccc2cc(O)cc(-c3nc4c5c(nc(OC[C@@]67CCCN6C[C@H](F)C7)nc5c3F)N3CCCOC[C@H]3CC4)c12 [compound 3, 5-ethyl-6-fluoro-4-[(8aR)-4-fluoro-2-{[(2R,7aS)-2-fluorotetrahydro-1H-pyrrolizin-7a(5H)-yl]methoxy}-7,8,8a,9,12,13-hexahydro-11H-10-oxa-1,3,6,13a-tetraazanaphtho[1,8-ab]heptalen-5-yl]naphthalen-2-ol] | 0.0063 µM | 0.011 µM |
| CCc1c(F)ccc2cc(O)cc(-c3nc4c5c(nc(OC[C@@]67CCCN6C[C@H](F)C7)nc5c3F)N3CCCOC[C@@H]3CC4)c12 [compound 4, 5-ethyl-6-fluoro-4-[(8aS)-4-fluoro-2-{[(2R,7aS)-2-fluorotetrahydro-1H-pyrrolizin-7a(5H)-yl]methoxy}-7,8,8a,9,12,13-hexahydro-11H-10-oxa-1,3,6,13a-tetraazanaphtho[1,8-ab]heptalen-5-yl]naphthalen-2-ol] | 0.135 µM | 0.304 µM |
| C#Cc1c(F)ccc2cc(O)cc(-c3nc4c5c(nc(OC[C@@]67CCCN6C[C@H](F)C7)nc5c3F)N3CCOCC[C@H]3CC4)c12 [compound 5, 5-ethynyl-6-fluoro-4-[(8aR)-4-fluoro-2-{[(2R,7aS)-2-fluorotetrahydro-1H-pyrrolizin-7a(5H)-yl]methoxy}-8,8a,9,10,12,13-hexahydro-7H-11-oxa-1,3,6,13a-tetraazanaphtho[1,8-ab]heptalen-5-yl]naphthalen-2-ol] | 0.0042 µM | 0.02 µM |
| CCc1c(F)ccc2cc(O)cc(-c3nc4c5c(nc(OC[C@@]67CCCN6C[C@H](F)C7)nc5c3F)N3CCOCC[C@H]3CC4)c12 [compound 6, 5-ethyl-6-fluoro-4-[(8aR)-4-fluoro-2-{[(2R,7aS)-2-fluorotetrahydro-1H-pyrrolizin-7a(5H)-yl]methoxy}-8,8a,9,10,12,13-hexahydro-7H-11-oxa-1,3,6,13a-tetraazanaphtho[1,8-ab]heptalen-5-yl]naphthalen-2-ol] | 0.021 µM | 0.026 µM |
| C#Cc1c(F)ccc2cc(O)cc(-c3nc4c5c(nc(OC[C@@]67CCCN6C[C@H](F)C7)nc5c3F)N3CCCC[C@H]3COC4)c12 [compound 9, 5-ethynyl-6-fluoro-4-[(6aS)-1-fluoro-12-{[(2R,7aS)-2-fluorotetrahydro-1H-pyrrolizin-7a(5H)-yl]methoxy}-6,6a,7,8,9,10-hexahydro-4H-5-oxa-3,10a,11,13-tetraazabenzo[4,5]cycloocta[1,2,3-de]naphthalen-2-yl]naphthalen-2-ol] | 0.102 µM | 0.641 µM |
| C#Cc1c(F)ccc2cc(O)cc(-c3nc4c5c(nc(OC[C@@]67CCCN6C[C@H](F)C7)nc5c3F)N3CCC[C@H]3COC4)c12 [compound 10, 5-ethynyl-6-fluoro-4-[(6aS)-1-fluoro-11-{[(2R,7aS)-2-fluorotetrahydro-1H-pyrrolizin-7a(5H)-yl]methoxy}-6a,7,8,9-tetrahydro-4H,6H-5-oxa-3,9a,10,12-tetraazacyclopenta[4,5]cycloocta[1,2,3-de]naphthalen-2-yl]naphthalen-2-ol] | 3 µM | 3 µM |
| C#Cc1c(F)ccc2cc(O)cc(-c3nc4c5c(nc(OC[C@@]67CCCN6C[C@H](F)C7)nc5c3F)N3CCCC[C@H]3C4)c12 [compound 13, 5-ethynyl-6-fluoro-4-((S)-4-fluoro-2-(((2R,7aS)-2-fluorotetrahydro-1H-pyrrolizin-7a(5H)-yl)methoxy)-7,7a,8,9,10,11-hexahydropyrido[1,2-g]pyrimido[4,5,6-de][1,6]naphthyridin-5-yl)naphthalen-2-ol] | 0.0039 µM | 0.039 µM |
| C#Cc1c(F)ccc2cc(O)cc(-c3nc4c5c(nc(OC[C@@]67CCCN6C[C@H](F)C7)nc5c3F)N3CCOC[C@H]3C4)c12 [compound 18, 5-ethynyl-6-fluoro-4-((R)-4-fluoro-2-(((2R,7aS)-2-fluorotetrahydro-1H-pyrrolizin-7a(5H)-yl)methoxy)-7a,8,10,11-tetrahydro-7H-[1,4]oxazino[4,3-g]pyrimido[4,5,6-de][1,6]naphthyridin-5-yl)naphthalen-2-ol] | 0.123 µM | 0.13 µM |
| C#Cc1c(F)ccc2cc(O)cc(-c3nc4c5c(nc(OC[C@@]67CCCN6C[C@H](F)C7)nc5c3F)N3CCCC[C@H]3CC4)c12 [compound 20, 5-ethynyl-6-fluoro-4-[(8aS)-4-fluoro-2-{[(2R,7aS)-2-fluorotetrahydro-1H-pyrrolizin-7a(5H)-yl]methoxy}-8,8a,9,10,11,12-hexahydro-7H-1,3,6,12a-tetraazabenzo[4,5]cyclohepta[1,2,3-de]naphthalen-5-yl]naphthalen-2-ol] | 0.01 µM | 0.047 µM |
| C#Cc1c(F)ccc2cc(O)cc(-c3nc4c5c(nc(OC[C@@]67CCCN6C[C@H](F)C7)nc5c3F)N3CCCCC3C=C4)c12 (stereo partly drawn) [compound 21, 5-ethynyl-6-fluoro-4-(4-fluoro-2-{[(2R,7aS)-2-fluorotetrahydro-1H-pyrrolizin-7a(5H)-yl]methoxy}-9,10,11,12-tetrahydro-8aH-1,3,6,12a-tetraazabenzo[4,5]cyclohepta[1,2,3-de]naphthalen-5-yl)naphthalen-2-ol] | 0.0029 µM | 0.02 µM |
| C#Cc1c(F)ccc2cc(O)cc(-c3nc4c5c(nc(OC[C@@]67CCCN6C[C@H](F)C7)nc5c3F)N3CCCCCC3CC4)c12 (some centres unmarked) [compound 22] | 0.032 µM | 0.248 µM |
| CCc1c(F)ccc2cc(O)cc(-c3nc4c5c(nc(OC[C@@]67CCCN6C[C@H](F)C7)nc5c3F)N3CCCCCC3CC4)c12 (stereo partly drawn) [compound 23, 5-ethyl-6-fluoro-4-(4-fluoro-2-{[(2R,7aS)-2-fluorotetrahydro-1H-pyrrolizin-7a(5H)-yl]methoxy}-7,8,8a,9,10,11,12,13-octahydro-1,3,6,13a-tetraazanaphtho[1,8-ab]heptalen-5-yl)naphthalen-2-ol] | 0.172 µM | 1.45 µM |
| C#Cc1c(F)ccc2cc(O)cc(-c3nc4c5c(nc(OCC6(CN(C)C)CC6(F)F)nc5c3F)N3CCCCC3CC4)c12 (centres unmarked) [compound 24, 4-[2-({1-[(dimethylamino)methyl]-2,2-difluorocyclopropyl}methoxy)-4-fluoro-8,8a,9,10,11,12-hexahydro-7H-1,3,6,12a-tetraazabenzo[4,5]cyclohepta[1,2,3-de]naphthalen-5-yl]-5-ethynyl-6-fluoronaphthalen-2-ol] | 0.023 µM | 0.091 µM |
| C#Cc1c(F)ccc2cc(O)cc(-c3nc4c5c(nc(OC[C@@]67CCCN6C[C@H](F)C7)nc5c3F)N3CCOCC[C@@H]3CC4)c12 [compound 25, 5-ethynyl-6-fluoro-4-[(8aS)-4-fluoro-2-{[(2R,7aS)-2-fluorotetrahydro-1H-pyrrolizin-7a(5H)-yl]methoxy}-8,8a,9,10,12,13-hexahydro-7H-11-oxa-1,3,6,13a-tetraazanaphtho[1,8-ab]heptalen-5-yl]naphthalen-2-ol] | 0.276 µM | 0.638 µM |
| CCc1c(F)ccc2cc(O)cc(-c3nc4c5c(nc(OC[C@@]67CCCN6C[C@H](F)C7)nc5c3F)N3CCOCC[C@@H]3CC4)c12 [compound 26, 5-ethyl-6-fluoro-4-[(8aS)-4-fluoro-2-{[(2R,7aS)-2-fluorotetrahydro-1H-pyrrolizin-7a(5H)-yl]methoxy}-8,8a,9,10,12,13-hexahydro-7H-11-oxa-1,3,6,13a-tetraazanaphtho[1,8-ab]heptalen-5-yl]naphthalen-2-ol] | 0.321 µM | 0.557 µM |
| C#Cc1c(F)ccc2cc(O)cc(-c3nc4c5c(nc(OC[C@@]67CCCN6C[C@H](F)C7)nc5c3F)N3CCCC[C@@H]3CC4)c12 [compound 27, 5-ethynyl-6-fluoro-4-[(8aR)-4-fluoro-2-{[(2R,7aS)-2-fluorotetrahydro-1H-pyrrolizin-7a(5H)-yl]methoxy}-8,8a,9,10,11,12-hexahydro-7H-1,3,6,12a-tetraazabenzo[4,5]cyclohepta[1,2,3-de]naphthalen-5-yl]naphthalen-2-ol] | 0.01 µM | 0.032 µM |
| C#Cc1c(F)ccc2cc(O)cc(-c3nc4c5c(nc(OC[C@@]67CCCN6C[C@H](F)C7)nc5c3F)N3CCCCC3C(C#N)C4)c12 (stereo partly drawn) [compound 28, 5-(8-ethynyl-7-fluoro-3-hydroxynaphthalen-1-yl)-4-fluoro-2-{[(2R,7aS)-2-fluorotetrahydro-1H-pyrrolizin-7a(5H)-yl]methoxy}-8,8a,9,10,11,12-hexahydro-7H-1,3,6,12a-tetraazabenzo[4,5]cyclohepta[1,2,3-de]naphthalene-8-carbonitrile] | 0.061 µM | 0.787 µM |

Reference: patent US20260327246A1, “FUSED RING KRAS INHIBITORS FOR TREATING DISEASE” (BLOSSOMHILL THERAPEUTICS, INC., priority 2023, published 2026)
